Data reported in patent EP0721774A2, “Anti-microbial compositions” (UNILEVER N.V., priority 1994, dated 1996).

Tests used:
Candida = test: Minimum inhibitory concentration (MIC), spot dilution on lawned SDM agar plates; assay type: cell-based
Method: (§1) The minimum inhibitory concentrations (MICs) of these peptides were determined as follows: Organisms were subcultured from BHIS agar into BHI broth and incubated at 37°C for 2 days. They were then diluted 1/100 in fresh broth and flooded onto pre-dried SDM agar plates. Excess culture was removed by pipetting. Plates were then allowed to dry at room temperature. The various synthesised peptides were dissolved in sterile water at a concentration of 1 %. Doubling dilutions, in water, were carried out down to 0.03 %. 15 µl of each dilution was spotted onto the lawned cultures, allowed to dry and then the plates were incubated at 37°C for 2 days. Plates were then read for zones of inhibition. The MIC was taken as the lowest dilution still causing visible growth inhibition.
(§2) All organisms were routinely grown on supplemented Brain Heart Infusion agar (Difco) and when appropriate subcultured into Brain Hearth Infusion broth (Difco). For MIC assays a chemically defined solid medium (SDM) was used^(5).
Candida strains 83 and 41 were isolated from oral ecology studies.

Actinomyces = test: as above; assay type: cell-based
Method: as §1, §2
Actinomyces 12/2, 69A and 41A were plaque isolates from oral ecology studies.

S.salivarius = test: as above; assay type: cell-based, Steptococcus salivarius
Method: as §1, §2
Steptococcus salivarius strans were all wild plaque isolates from oral ecology studies.

S.sanguis = test: as above; assay type: cell-based, Streptococcus sanguis
Method: as §1, §2
Streptococcus sanguis strains were all clinical isolates from the plaque of panellists in ongoing oral ecology studies.

Lactobacilli = test: as above; assay type: cell-based
Method: as §1, §2
Lactobacilli were from the in house Colworth Microbial Culture Collection. SB115 and SB116 were L.casei var. rhamnosus, SB82 had been classified as L.plantarum, SB83 and SB85 were Lactobacillus sp. and SB 9 was L.casei.

C. albicans = conditions: compared among histatins -1, -3 and -5; cited from earlier work
S.mutans = test: Minimum inhibitory concentration (MIC), spot dilution on lawned SDM agar plates; assay type: cell-based, Streptococcus mutans
Method: as §1, §2
The organisms used were the following: Streptococcus mutans strains were clinical isolates, from the plaque of panellists in oral ecology studies. […] SM11060 belonged to serotype f and SM10919 belonged to serotype g. Strain SMB13 (serotype d) was supplied by PHLS, Porton Down.

Histatin-5
MIC (Candida; strain 41): >1.0% | MIC (Candida; strain 83): >1.0% | MIC (Actinomyces; strain 10A): 1.0% | MIC (Actinomyces; strain 11A): 0.5% | MIC (Actinomyces; strain 16A): growth stimulated | MIC (Actinomyces; strain 41A): 1.0% | MIC (Actinomyces; strain 69A): growth stimulated | MIC (Actinomyces; strain 71A): 0.5% | MIC (S.salivarius; strain 2/7): growth stimulated | MIC (S.salivarius; strain 2/27): growth stimulated | MIC (S.salivarius; strain 14/9): growth stimulated | MIC (S.sanguis; strain 6/9): growth stimulated | MIC (S.sanguis; strain 10/23): growth stimulated | MIC (S.sanguis; strain SS209): growth stimulated | MIC (Lactobacilli; strain SB9 (L.casei)): 1.0% | MIC (Lactobacilli; strain SB81): 0.125% | MIC (Lactobacilli; strain SB82 (L.plantarum)): 0.125% | MIC (Lactobacilli; strain SB116 (L.casei var. rhamnosus)): 1.5% | ability to kill the pathogenic yeast C. albicans (C. albicans): most effective | MIC (S.mutans; strain SM1dg): 1.0% | MIC (S.mutans; strain SM24dg): 1.0% | MIC (S.mutans; strain SM28B): 1.0% | MIC (S.mutans; strain SM44A): 0.5% | MIC (S.mutans; strain SM84C): 1.0% | MIC (S.mutans; strain SM148dg): 0.5% | MIC (S.mutans; strain SM189): 0.5% | MIC (S.mutans; strain SM211): 0.25% | MIC (S.mutans; strain SM6715): 0.5% | MIC (S.mutans; strain SM10449): 0.25% | MIC (S.mutans; strain SMNW1): 1.0% | MIC (S.mutans; strain SMNW6): 1.0% | MIC (S.mutans; strain SMNW10): 0.5%
